What was measured:
[1] = Inhibition of GP41 six-helix bundle formation in HIV 3B after 30 mins by FN-PAGE analysis; set-up: species or system Human immunodeficiency virus 1
[2] = Inhibition of HIV1 3B gp41-mediated fusion of infected human H9 cells to uninfected human MT2 cells by fluorescence assay; format: cell-based; conditions: Human immunodeficiency virus 1, 3B
[3] = tested on: Human immunodeficiency virus; assay: Antiviral activity against HIV 3B infected in MT2 cells assessed as inhibition of viral replication measuring p24 level by ELISA; format: functional, organism-based; conditions: Human immunodeficiency virus 1, 3B
[4] = Cytotoxicity against human MT2 cells by XTT assay; format: cell-based
[5] = Selectivity index, ratio of CC50 for human MT2 cells to EC50 for HIV 3B infected in MT2 cells; format: toxicity, cell-based; conditions: read-out: Ratio CC50/EC50

EC50 [1] [µM]	EC50 [3] [µM]	Structure (SMILES)	EC50 [2] [µM]	CC50 [4] [µM]	selectivity ratio [5]
5.5	> 100	O=C(O)c1cc(-c2ccc(/C=C3\CC(=O)N(CCc4ccccc4)C3=O)[nH]2)ccc1Cl	> 100	74.1	
1.27	0.05	O=C(O)c1cc(-c2ccc(/C=C3\SC(=S)N(CCc4ccccc4)C3=O)o2)ccc1Cl	0.75	20.3	406
> 100	> 100	O=C(O)c1cccc(-c2ccc(/C=C3\CC(=O)N(CCc4ccccc4)C3=O)[nH]2)c1	> 100	127	
12.9	16.8	O=C(O)c1cc(-c2ccc(/C=c3\sc4nc(=O)c(-c5ccccc5)nn4c3=O)o2)ccc1Cl	45.9	> 320	> 19.1
29.7	15.1	O=C(O)c1cc(-c2ccc(/C=C3\SC(=O)N(CCc4ccccc4)C3=O)o2)ccc1Cl	26.9	68.2	4.5
3.05	> 100	O=C(O)c1cccc(-c2ccc(/C=C3\NC(=O)N(CCc4ccccc4)C3=O)[nH]2)c1	35.9	75.2	
19	54.2	O=C(O)c1cc(-c2ccc(/C=C3\NC(=O)N(CCc4ccccc4)C3=O)o2)ccc1Cl	> 100	78.5	1.5
27.8	31	O=C(O)c1cc(-c2ccc(/C=C3\OC(=S)N(CCc4ccccc4)C3=O)o2)ccc1Cl	49.6	282	9.1
15.6	6.9	O=C(O)c1cc(-c2ccc(/C=C3\CC(=O)N(CCc4ccccc4)C3=O)o2)ccc1Cl	43.6	118	17.2
